How the values were obtained:
[1] = test system: prostatic tumor R-3327-H according to Dunning; assay: Antagonistic effect on Dunning R-3327-H prostate carcinoma in rats, 30 days; assay type: in vivo; conditions: encapsulated 25 micrograms daily i.m.
Source text: (DUNNING R-3327-H PROSTRATE CARCINOMA).

[2] = Body and organ weights of the rats bearing the Dunning R-3327-H tumor; conditions: 30 days, encapsulated 25 micrograms daily i.m.
Protocol: In vivo tests were carried out on groups of 7 to 10 animals during a period of 30 days.
The administration of the non-encapsulated Compound A adequately dissolved in a biocompatible solvent was achieved by the subcutaneous injection of two doses every day, each dose containing 25 micrograms of compound A (Table 2) or 12.5 micrograms of compound A (Table 3).
The administration of the encapsulated compound A was achieved by the daily intra-muscular injection of doses of the preparation suspended in a biocompatible solvent, each such dose containing 25 micrograms of compound A.

[3] = Table 2, non-encapsulated 2 x 25 micrograms/day s.c.
[4] = Table 3, non-encapsulated 2 x 12.5 micrograms/day s.c.

SMILES: CC(C)C[C@H](NC(=O)[C@@H](Cc1c[nH]c2ccccc12)NC(=O)[C@H](Cc1ccc(O)cc1)NC(=O)[C@H](CO)NC(=O)[C@H](Cc1c[nH]c2ccccc12)NC(=O)[C@H](Cc1c[nH]cn1)NC(=O)[C@@H]1CCC(=O)N1)C(=O)N[C@@H](CCCNC(=N)N)C(=O)N1CCC[C@H]1C(=O)NCC(N)=O [Compound A non-encapsulated, (pyro) Glu-His-Trp-Ser-Tyr-D-Trp-Leu-Arg-Pro-Gly-NH2]
- Increase of tumor volume [1, 3]: 85 + 19%
- Tumor (Dunning R3327-H Prostate Carcinoma) [1, 3]: 546 + 0.14 mg
- Increase of tumor volume [1, 4]: 110 + 28%
- Tumor (Dunning R3327-H Prostate Carcinoma) [1, 4]: 260 + 68 mg
- Testicles [2, 3]: 1.36 ± 0.14 g
- Ventral portion of prostate [2, 3]: 54 + 5 mg
- Testicles [2, 4]: 1.83 ± 0.07 g
- Ventral portion of prostate [2, 4]: 88 + 7 mg
